In patent US12686674B2, “Crystal form of compound represented by formula I, and preparation therefor and application thereof” (Shanghai Zhimeng Biopharma, Inc., priority 2021, dated 2026):

Experiments:
[1] = Key water activity research, crystal form A and hydrate crystal form E; format: physicochemical; conditions: room temperature
AMES experiments = format: cell-based
[2] = Suspension competition of anhydrous crystal forms A/G; format: physicochemical
Procedure: In order to study the stability relationship between other anhydrous crystal forms (crystal forms A/G), suspension competition experiments were conducted at room temperature and 60° C. using ACN and EtOAc as solvents.

[3] = Room temperature storage of crystal form F (XRPD); format: physicochemical; conditions: room temperature (18-20° C./45~75% RH), about 3 days

O=C1CO[C@H](c2cn(-c3ccc(Br)cc3)nc2-c2ccc(F)cc2)N1CCc1ccc2[nH]c(=O)[nH]c2c1
The crystal form obtained (key water activity) ([1]; Water activity(Aw) 0, Acetone/H2O 1000:0 v/v): Crystal form A
The crystal form obtained (key water activity) ([1]; Water activity(Aw) 0.2, Acetone/H2O 984:16 v/v): Crystal form A
The crystal form obtained (key water activity) ([1]; Water activity(Aw) 0.4, Acetone/H2O 948:52 v/v): Crystal form A
The crystal form obtained (key water activity) ([1]; Water activity(Aw) 0.6, Acetone/H2O 857:143 v/v): Crystal form A
The crystal form obtained (key water activity) ([1]; Water activity(Aw) 0.8, Acetone/H2O 604:396 v/v): Crystal form A
The crystal form obtained (key water activity) ([1]; Water activity(Aw) 1.0, Acetone/H2O 0:1000 v/v): Crystal form E

Nc1ccc(CCN2C(=O)COC2c2cn(-c3ccc(Br)cc3)nc2-c2ccc(F)cc2)cc1N (centres unmarked) [2-(1-(4-bromophenyl)-3-(4-fluorophenyl)-1H-pyrazole-4-yl)-3-(3,4-diaminophenethyl) oxazolidin-4-one]
AMES experiments (AMES experiments): positive

CC(=O)Nc1ccc(CCN2C(=O)COC2c2cn(-c3ccc(Br)cc3)nc2-c2ccc(F)cc2)cc1[N+](=O)[O-] (centres unmarked) [3-(4-acetylamino-3-nitrophenylethyl)-2-(3-(4-fluorophenyl)-1-(4-bromophenyl)-1H-pyrazole-4-yl) oxazolidin-4-one]
AMES experiments (AMES experiments): positive

Nc1ccc(CCN2C(=O)COC2c2cn(-c3ccc(Br)cc3)nc2-c2ccc(F)cc2)cc1[N+](=O)[O-] (centres unmarked) [3-(4-amino-3-nitrophenylethyl)-2-(1-(4-bromophenyl)-3-(4-fluorophenyl)-1H-pyrazole-4-yl) oxazolidin-4-one]
AMES experiments (AMES experiments): positive

O=C1CO[C@H](c2cn(-c3ccc(Br)cc3)nc2-c2ccc(F)cc2)N1CCc1ccc2[nH]c(=O)[nH]c2c1 [Crystal form A/G]
The crystal form obtained (suspension competition) ([2]; ACN, 60° C., test D220-PS-14-A3): Crystal form A
The crystal form obtained (suspension competition) ([2]; ACN, Room temperature(~18° C.), test D220-PS-14-A1): Crystal form A
The crystal form obtained (suspension competition) ([2]; EtOAc, 60° C., test D220-PS-14-A4): Crystal form A
The crystal form obtained (suspension competition) ([2]; EtOAc, Room temperature(~18° C.), test D220-PS-14-A2): Crystal form A

O=C1CO[C@H](c2cn(-c3ccc(Br)cc3)nc2-c2ccc(F)cc2)N1CCc1ccc2[nH]c(=O)[nH]c2c1 [Crystal form F]
crystal form after being placed at room temperature [3]: transformed into crystal form E
